Source: patent US9884040B2, “Desethylamiodarone for use in cancer treatment” (PÉCSI TUDOMÁNYEGYETEM, priority 2015, dated 2018)

Tests used:
[1] = tested on: MCF 7 breast cancer cells; test: Radiotherapy plus DEA, MTT viability, MCF 7; type: cell-based; settings: 2Gy, 24, 48 and 72 hours, increasing DEA
Description: (§1) The cells were seeded into 96-well plates at a starting density of 10^4 cells per well and cultured overnight before DEA was added to the medium for 24 h and 48 h. The medium was changed to a fresh one containing 0.5% of 3-[4,5-dimethylthiazol-2-yl]-2,5-diphenyl-tetrazolium bromide (MTT+) for an additional 3 hours, then the MTT+ reaction was terminated by adding HCl to 10 mM final concentration. The amount of blue formazan dye formed from MTT+ was proportional to the number of live cells, and was determined with an Anthos Labtech 2010 ELISA reader at 550 nm. All experiments were run in at least 4 replicates and repeated 3 times.
MCF 7 cells were exposed to 2Gy irradiation for 24, 48 and 72 hours in presence or absence of increasing concentration of DEA. Viability of the cells was detected by the MTT method. Untreated cells served as controls.

[2] = after administration of amiodarone; cited from earlier work
[3] = cited from earlier work
[4] = tested on: T24 human bladder cancer cell line; test: Radiotherapy plus DEA, colony formation, T24; type: cell-based; settings: 1Gy or 2Gy single dose alone or with 500 nM-3 μM DEA
Description: Cells were trypsinized and plated in triplicate into 6-well plates at 500 cells/well. Cells were treated with different concentration of DEA and irradiated with a dose of 1.0 and 2.0 Grays. A telecobalt (Therathron 780 C) external irradiation equipment (average photon energy of 1.25 MeV) will be applied for irradiating cells. After 7 days of incubation, cells were washed and stained with Coomassie-blue, and the colonies containing more than 50 cells were counted. The number of colonies were determined and normalized to the number of colonies in controls.
To examine the effects of a DEA on the effectiveness of radiotherapy the cells were treated with 1Gy or 2Gy single dose irradiation alone or combined with 500 nM-3 μM DEA.
The cells were treated with 1Gy or 2Gy single dose irradiation alone or combined with 500 nM-3 μM DEA. Untreated cells served as controls. The results are mean±SEM of 3 independent experiments performed in at least quadruplicate. P<0.05 compared to the corresponding control group.

[5] = tested on: HeLa (human cervix adenocarcinoma) cells; test: MTT cell viability assay, HeLa; type: cell-based; settings: increasing concentrations, 24 and 48 h
Description: as §1
(§2) The effect of desethylamiodarone was measured in T24 (human urinary bladder carcinoma), A549 (human lung adenocarcinoma epithelial), B16F10 (mice melanoma), HeLa (human cervix adenocarcinoma), 4T1 (mouse mammary carcinoma) cell lines. Cells were treated with increasing concentrations of desethylamiodarone for 24 and 48 h. Cell growth was assessed by measuring metabolic activity, which reflects viability in the MTT-test in the course of 24 h, 48 h of continued exposure to desethylamiorarone. The untreated cells served as negative controls. The viability of the cells, was lower in all DEA-treated than in the control group, with the difference being statistically significant.

[6] = tested on: mitochondrial permeability transition; settings: applicants' previous published results; cited from earlier work
[7] = tested on: T24 (human urinary bladder carcinoma) cells; test: MTT cell viability assay, T24; type: cell-based; settings: 24 h and 48 h; 5, 10, 15 and 15 μM; vs untreated control
Description: as §1
as §2, with “The viability of the cells, was lower in all DEA-treated than in the control group, with the difference being statistically significant.” left out
T24 cells were exposed for 24 h (A), 48 h (B) to […], 10 μM, 15 μM and 15 μM desethylamiodarone (filled bars). Viability of the cells was detected by the MTT+ method. […]

CCCCc1oc2ccccc2c1C(=O)c1cc(I)c(OCCNCC)c(I)c1 [DEA, (2-butyl-3-benzofuranyl)[4-[2-(ethylamino)ethoxy]-3,5-diiodophenyl]-methanone]
Radiosensitization, viability of MCF 7 (MTT) [1]: sensitize MCF 7 breast cancer cells to irradiation
Concentration in the lungs [2]: can reach mM concentrations
Concentration in patient plasma ([3]; after amiodarone in therapeutic doses): 1700 to 4500 nM
Mean elimination half-life ([3]; in vivo): 40 days
Radiosensitization, colony formation, T24 [4]: sensitize bladder cancer to irradiation
Viability of HeLa cells (MTT) [5]: significantly inhibited the viability
Mitochondrial permeability transition [6]: caused mitochondrial permeability transition
Viability of T24 cells (MTT) [7]: Significantly different from control group at p<0.01
